Experimental data taken from ChEMBL document CHEMBL1158218, “Structure and Plant Growth Regulatory Activity of New Diterpenes from Pterodon polygalaeflorus” (1996).
Calls of active or inactive are those of the source. No cut-off for these calls is given here.

Experiments:
Cucumis sativus [1] = assay: Stimulation of radicular growth in Cucumis sativus at 100 ppm after 3 days; assay type: functional, organism-based
Sorghum bicolor [2] = assay: Inhibition of radicular growth in Sorghum bicolor at 1000 ppm after 3 days; assay type: functional; conditions: 72 h
Cucumis sativus [3] = assay: Stimulation of radicular growth in Cucumis sativus at 1000 ppm after 3 days; assay type: functional, organism-based
Sorghum bicolor [4] = assay: Inhibition of radicular growth in Sorghum bicolor at 100 ppm after 3 days; assay type: functional; conditions: 72 h
Cucumis sativus [5] = assay: Inhibition of radicular growth in Cucumis sativus at 1000 ppm after 3 days; assay type: functional, organism-based

In the case of `CC1(C)CCC[C@]2(C)[C@H]3Cc4occc4[C@H]4C(=O)O[C@@H]([C@H](O)[C@@H]12)[C@@H]43`, the Activity (Cucumis sativus [1]) is reported as “Active”, the inhibition at 1000 ppm (Sorghum bicolor [2]) is reported as 13% and the Activity (Cucumis sativus [3]) is reported as “inactive”.

With `CC1(C)CCC[C@]2(C)[C@H]3Cc4occc4[C@@](C)(O)[C@@H]3[C@@H](O)[C@H](O)[C@@H]12` the Activity (Cucumis sativus [1]) was “Active”, the inhibition at 1000 ppm (Sorghum bicolor [2]) was 13% and the Activity (Cucumis sativus [3]) was “inactive”.

`CC1(C)CCC[C@]2(C)[C@H]3Cc4occc4[C@@H](C(=O)O)[C@@H]3[C@@H](O)[C@H](O)[C@@H]12` was tested, and the Activity (Cucumis sativus [1]) was “Active”, the inhibition at 100 ppm (Sorghum bicolor [4]) was 39% and the Activity (Cucumis sativus [5]) was “Active”. For the same compound, the inhibition at 1000 ppm (Sorghum bicolor [2]) was 65%.

`C[C@]1(CO)CCC[C@]2(C)[C@H]3Cc4occc4[C@@](C)(O)[C@@H]3[C@@H](O)[C@H](O)[C@@H]12` was tested, and the Activity (Cucumis sativus [1]) was “Active”, the Activity (Cucumis sativus [5]) was “Active” and the inhibition at 1000 ppm (Sorghum bicolor [2]) was 13%.
